According to the supplement of paper PMC13380429:

Columns and labels:
Conditions in all cases: 72 h
Calu-3 [1] = test: drug sensitivity score (DSS) for viability; higher = more toxic; extreme values may be limits of the assay
Vero E6 [2] = test: as above
Caco-2 [3] = test: as above
HepG2 [4] = test: as above
U2OS [5] = test: as above
Calu-3 [6] = test: cell viability relative to DMSO; higher = less toxic
Vero E6 [7] = test: as above
Caco-2 [8] = test: as above
HepG2 [9] = test: as above
U2OS [10] = test: as above
Calu-3 [11] = test: relative viability EC50 (midpoint between 100% and the lowest measured viability); higher = less toxic
U2OS [12] = test: as above
Vero E6 [13] = test: as above
HepG2 [14] = test: as above
Caco-2 [15] = test: as above

COc1cc2nc(C3CC3)nc(N3CCN(c4ccccc4OC)CC3)c2cc1OC [ML314] showed a drug sensitivity score (Calu-3 [1]) of 1.6, a drug sensitivity score (Vero E6 [2]) of 3.1 and a drug sensitivity score (Caco-2 [3]) of 2.9. It also gave a drug sensitivity score (HepG2 [4]) of 3.8, a drug sensitivity score (U2OS [5]) of 0 and a cell viability (Calu-3 [6]; 1 nM) of 96.6%. It also gave a cell viability (Calu-3 [6]; 10 nM) of 101%, a cell viability (Calu-3 [6]; 100 nM) of 102% and a cell viability (Calu-3 [6]; 1000 nM) of 92.7%. The cell viability (Calu-3 [6]; 10000 nM) was 78.3%, the cell viability (Vero E6 [7]; 1 nM) was 96.9% and the cell viability (Vero E6 [7]; 10 nM) was 109%. It also gave a cell viability (Vero E6 [7]; 100 nM) of 95%, a cell viability (Vero E6 [7]; 1000 nM) of 87.6% and a cell viability (Vero E6 [7]; 10000 nM) of 62.9%. It also gave a cell viability (Caco-2 [8]; 1 nM) of 100%, a cell viability (Caco-2 [8]; 10 nM) of 91.5% and a cell viability (Caco-2 [8]; 100 nM) of 97.9%. It also gave a cell viability (Caco-2 [8]; 1000 nM) of 94.8%, a cell viability (Caco-2 [8]; 10000 nM) of 59% and a cell viability (HepG2 [9]; 1 nM) of 102%. For the same compound, the cell viability (HepG2 [9]; 10 nM) was 92.4%, the cell viability (HepG2 [9]; 100 nM) was 100% and the cell viability (HepG2 [9]; 1000 nM) was 91.6%. It also gave a cell viability (HepG2 [9]; 10000 nM) of 54.1%, a cell viability (U2OS [10]; 1 nM) of 96.5% and a cell viability (U2OS [10]; 10 nM) of 97.4%. It also gave a cell viability (U2OS [10]; 100 nM) of 91.5%, a cell viability (U2OS [10]; 1000 nM) of 98.2% and a cell viability (U2OS [10]; 10000 nM) of 87.1%. For the same compound, the “relative viability EC50” value (Calu-3 [11]) was over 10 µM and the “relative viability EC50” value (U2OS [12]) was over 10 µM.

For C=C(C)[C@@H]1CC[C@]2(CO)CC[C@]3(C)[C@H](CC[C@@H]4[C@@]5(C)CC[C@H](O)C(C)(C)[C@@H]5CC[C@]43C)[C@@H]12 [NSC-4644], the drug sensitivity score (Calu-3 [1]) was 0, the drug sensitivity score (Vero E6 [2]) was 0 and the drug sensitivity score (Caco-2 [3]) was 10.8. For the same compound, the drug sensitivity score (HepG2 [4]) was 2.9, the drug sensitivity score (U2OS [5]) was 0 and the cell viability (Calu-3 [6]; 1 nM) was 103%. For the same compound, the cell viability (Calu-3 [6]; 10 nM) was 103%, the cell viability (Calu-3 [6]; 100 nM) was 102% and the cell viability (Calu-3 [6]; 1000 nM) was 106%. For the same compound, the cell viability (Calu-3 [6]; 10000 nM) was 90.3%, the cell viability (Vero E6 [7]; 1 nM) was 84.1% and the cell viability (Vero E6 [7]; 10 nM) was 95.4%. It also gave a cell viability (Vero E6 [7]; 100 nM) of 96.3%, a cell viability (Vero E6 [7]; 1000 nM) of 92% and a cell viability (Vero E6 [7]; 10000 nM) of 106%. It also gave a cell viability (Caco-2 [8]; 1 nM) of 101%, a cell viability (Caco-2 [8]; 10 nM) of 73.1% and a cell viability (Caco-2 [8]; 100 nM) of 75.8%. The cell viability (Caco-2 [8]; 1000 nM) was 74.1%, the cell viability (Caco-2 [8]; 10000 nM) was 91.1% and the cell viability (HepG2 [9]; 1 nM) was 112%. It also gave a cell viability (HepG2 [9]; 10 nM) of 99.1%, a cell viability (HepG2 [9]; 100 nM) of 96.1% and a cell viability (HepG2 [9]; 1000 nM) of 81.2%. The cell viability (HepG2 [9]; 10000 nM) was 89.8%, the cell viability (U2OS [10]; 1 nM) was 96.6% and the cell viability (U2OS [10]; 10 nM) was 95.6%. The cell viability (U2OS [10]; 100 nM) was 103%, the cell viability (U2OS [10]; 1000 nM) was 92% and the cell viability (U2OS [10]; 10000 nM) was 98.4%. For the same compound, the “relative viability EC50” value (Calu-3 [11]) was over 10 µM, the “relative viability EC50” value (Vero E6 [13]) was over 10 µM and the “relative viability EC50” value (HepG2 [14]) was over 10 µM. The “relative viability EC50” value (U2OS [12]) was over 10 µM.

In the case of O=C(c1c(F)ccc(NS(=O)(=O)N2CC[C@@H](F)C2)c1F)c1c[nH]c2ncc(-c3cnc(C4CC4)nc3)cc12 [PLX8394], the drug sensitivity score (Calu-3 [1]) is reported as 0, the drug sensitivity score (Vero E6 [2]) is reported as 0 and the drug sensitivity score (Caco-2 [3]) is reported as 1.9. For the same compound, the drug sensitivity score (HepG2 [4]) was 0.6, the drug sensitivity score (U2OS [5]) was 0 and the cell viability (Calu-3 [6]; 1 nM) was 105%. The cell viability (Calu-3 [6]; 10 nM) was 105%, the cell viability (Calu-3 [6]; 100 nM) was 83.6% and the cell viability (Calu-3 [6]; 1000 nM) was 104%. The cell viability (Calu-3 [6]; 10000 nM) was 114%, the cell viability (Vero E6 [7]; 1 nM) was 102% and the cell viability (Vero E6 [7]; 10 nM) was 96.6%. For the same compound, the cell viability (Vero E6 [7]; 100 nM) was 104%, the cell viability (Vero E6 [7]; 1000 nM) was 98.8% and the cell viability (Vero E6 [7]; 10000 nM) was 113%. The cell viability (Caco-2 [8]; 1 nM) was 102%, the cell viability (Caco-2 [8]; 10 nM) was 99.2% and the cell viability (Caco-2 [8]; 100 nM) was 94.4%. The cell viability (Caco-2 [8]; 1000 nM) was 91.7%, the cell viability (Caco-2 [8]; 10000 nM) was 71.8% and the cell viability (HepG2 [9]; 1 nM) was 91%. For the same compound, the cell viability (HepG2 [9]; 10 nM) was 90.5%, the cell viability (HepG2 [9]; 100 nM) was 106% and the cell viability (HepG2 [9]; 1000 nM) was 101%. For the same compound, the cell viability (HepG2 [9]; 10000 nM) was 79.1%, the cell viability (U2OS [10]; 1 nM) was 96% and the cell viability (U2OS [10]; 10 nM) was 105%. It also gave a cell viability (U2OS [10]; 100 nM) of 104%, a cell viability (U2OS [10]; 1000 nM) of 107% and a cell viability (U2OS [10]; 10000 nM) of 93.3%. For the same compound, the “relative viability EC50” value (Calu-3 [11]) was over 10 µM, the “relative viability EC50” value (Vero E6 [13]) was over 10 µM and the “relative viability EC50” value (HepG2 [14]) was over 10 µM. For the same compound, the “relative viability EC50” value (U2OS [12]) was over 10 µM.

CC(C)=CCC[C@](C)(O)[C@H]1CC[C@]2(C)[C@@H]1[C@H](O)C[C@@H]1[C@@]3(C)CC[C@H](O)C(C)(C)[C@@H]3CC[C@]12C [S-111] gave a drug sensitivity score (Calu-3 [1]) of 0, a drug sensitivity score (Vero E6 [2]) of 0 and a drug sensitivity score (Caco-2 [3]) of 0. It also gave a cell viability (Calu-3 [6]; 1 nM) of 95.5%, a cell viability (Calu-3 [6]; 10 nM) of 95.4% and a cell viability (Calu-3 [6]; 100 nM) of 89.1%. For the same compound, the cell viability (Calu-3 [6]; 1000 nM) was 97.2%, the cell viability (Calu-3 [6]; 10000 nM) was 93% and the cell viability (Vero E6 [7]; 1 nM) was 104%. It also gave a cell viability (Vero E6 [7]; 10 nM) of 102%, a cell viability (Vero E6 [7]; 100 nM) of 98.3% and a cell viability (Vero E6 [7]; 1000 nM) of 105%. For the same compound, the cell viability (Vero E6 [7]; 10000 nM) was 100%, the cell viability (Caco-2 [8]; 1 nM) was 106% and the cell viability (Caco-2 [8]; 10 nM) was 98.3%. It also gave a cell viability (Caco-2 [8]; 100 nM) of 103%, a cell viability (Caco-2 [8]; 1000 nM) of 104% and a cell viability (Caco-2 [8]; 10000 nM) of 99.8%. The “relative viability EC50” value (Calu-3 [11]) was over 10 µM, the “relative viability EC50” value (Vero E6 [13]) was over 10 µM and the “relative viability EC50” value (Caco-2 [15]) was over 10 µM.
